Counter-ions that a name gives are not always drawn.
Assays:
Male SD rats [1] = assay: Anxiogenic-like activity in Vogel test in rat (Proconflict test); format: in vivo; details: intracerebroventricular administration, 30 minutes before test; electric shock 0.4 mA; 3 minutes; FIG. 1
Protocol: Anxiogenic-like activity inducing action by α-MSH and MTII in Vogel test in rat (Proconflict test) was studied.
α-MSH and MTII were purchased from Peninsula Laboratories. Male SD rats weighing 220 to 240 g (Charles River Japan Inc.) were used for animals. Rats deprived of drinking water for 48 hours were divided into 5 animals for each group. The test compound was administered to rats intracerbroventricularly at 10 μl/2 min. of the test compound which was prepared by dissolving a predetermined amount of α-MSH or MTII in saline containing 0.1% bovine serum albumin. To control rats which were not administered test compound, saline containing 0.1% bovine serum albumin was administered intracerebroventricularly at 10 μl/2 min. Thirty minutes after the administration, rats were placed in a apparatus for the test, and drinking behaviors during the time of free access to drinking water for 3 minutes were measured. During the time of free access to drinking water, an electric shock (0.4 mA) was released, every 2 seconds of cumulative licking time to the drinking nozzle. The evaluation of this experiment was carried out using the number of the electric shocks.

human MC4 receptor = target: T1, human MC4 receptor (Homo sapiens, UniProt P32245); assay: MC4 receptor binding assay; details: HEK-293 cell membranes expressing human MC4 receptor; [125I]Nle4-D-Phe7-α-MSH 0.2 nM; 25° C., 120 minutes
T1 construct: purchased Biolinks Co; host or cells: HEK-293 cell membranes
T1 sequence (P32245 whole entry): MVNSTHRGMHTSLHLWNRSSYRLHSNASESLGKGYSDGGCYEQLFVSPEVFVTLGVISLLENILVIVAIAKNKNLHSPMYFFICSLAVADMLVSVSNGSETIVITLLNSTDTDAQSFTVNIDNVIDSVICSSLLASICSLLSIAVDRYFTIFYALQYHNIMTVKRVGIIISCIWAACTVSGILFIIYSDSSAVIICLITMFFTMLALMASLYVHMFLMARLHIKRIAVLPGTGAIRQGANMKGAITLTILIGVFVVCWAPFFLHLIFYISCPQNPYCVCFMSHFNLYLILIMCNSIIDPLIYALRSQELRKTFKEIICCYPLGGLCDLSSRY
Protocol: Experiment 1 [MC4 Receptor Binding Assay]
MC4 receptor binding assay was carried out according to the method described in Pharmacology & Taxicology, 79, 161-165, 1996, HEK-293 cell membranes expressing the human MC4 receptor were purchased from Biolinks Co. The cell membranes were homogenized in a 50 mM Tris hydrochloric acid buffer solution (pH 7.4) containing 2 mM ethylenediamine tetraacetic acid, 10 mM calcium chloride and 100 μM phenylmethanesulfonyl-fluoride. The homogenate was centrifuged at 48,000×g for 20 minutes at 4° C. The precipitate obtained by centrifugation was again homogenized in the same buffer solution, and the homogenate was centrifuged at 48,000×g for 20 minutes at 4° C. This procedure was repeated twice. The precipitate was suspended in 50 mM Tris hydrochloric acid buffer solution (pH 7.4) containing 2 mM ethylenediamine tetraacetic acid, 10 mM calcium chloride, 100 μM phenylmethanesulfonylfluoride and 0.1% bovine serum albumin to adjust to a protein concentration of 100 μg/ml to give a crude membrane preparation which was used for the binding assay. […] The radioactivity on the filter paper was measured in a gamma-counter. […] The IC50 value was calculated from the inhibition curve in the concentration range of 10^−9-10^−5.

Male SD rats [2] = assay: Anti-anxiety action in Vogel test (Conflict test) in rats; format: in vivo, rat; details: subcutaneous 1 mg/kg, 3 mg/kg or 10 mg/kg, 30 minutes before test; electric shock 1.0 mA; 3 minutes; FIG. 2
Protocol: Anti-anxiety action of Compound 4 in Table 1 in Vogel test (Conflict test) in rats was studied.
Male SD rats weighing 220 to 240 g (Charles River Japan Inc.) were used. Rats deprived of drinking water for 48 hours were divided into 10 animals for each group. To rats of group to be administered with the test compound was subcutaneously administered the test compound which was prepared by dissolving a predetermined amount of Compound 4 in Table 1 in saline for injection and adding 0.5 M aqueous sodium hydroxide solution to adjust to pH 4-5. Thirty minutes after the administration, rats were placed in a apparatus for the test, and drinking behaviors during the time of free access to drinking water for 3 minutes were measured. During the time of free access to drinking water, an electric shock (1.0 mA) was released, every 2 seconds of cumulative licking time to the drinking nozzle. The evaluation of this experiment was carried out using the number of the electric shocks.

Male SD rats [3] = assay: Anti-anxiety action in forced swim stress-induced anxiety model of rats (elevated plus-maze test); format: in vivo, rat; details: subcutaneous 0.3 mg/kg, 1 mg/kg or 3 mg/kg, 30 minutes before 2-minute forced swim stress, 5-minute period, FIG. 3
Protocol: Anti-anxiety action of Compound 4 in Table 1 in forced swim stress-induced anxiety model of rats was studied.
Male SD rats weighing 220 to 240 g (Charles River Japan Inc.) were used. Rats were divided into 10 animals for each group. To rats of group to be administered with the test compound was subcutaneously administered the test compound which was prepared by dissolving a predetermined amount of the test drug in saline for injection and adding 0.5 M aqueous sodium hydroxide solution to adjust to pH 4-5. Thirty minutes after the administration, rats were exposed to a forced swim stress by placing in a black cylinder (20 cm internal diameter, 40 cm high) containing 25 cm deep of water maintained at 25° C. Duration of the forced swim stress was 2 minutes, and the anti-anxiety action was studied by the elevated plus-maze test, which was carried out 5 minutes after the forced swim stress.
The elevated plus-maze used for the test consisted of open arms (10 cm wide, 50 cm long) and close arms (10 cm wide, 50 cm long), and the open arms and the enclosed arms were covered with 1 cm-high and 40 cm-high transparent Plexiglas, respectively. The plus-maze was placed in 50 cm high from the floor. Luminosity at the center of the maze was 40 lux. […] The amount of time spent in open arms of the maze was recorded during a 5-minute period.

[4] = tested on: olfactory bulbectomized rats; assay: Anti-depressant action in olfactory bulbectomized rats (open field); format: in vivo, rat; details: subcutaneous 1 mg/kg, 3 mg/kg or 10 mg/kg once a day for 2 weeks; test 24 hours after final administration; 3 minutes; FIG. 4
Description: Anti-depressant action of Compound 4 in Table 1 in olfactory bulbectomized rats was studied. Male SD rats weighing 220 to 240 g (Charles River Japan Inc.) were used. Rats were anesthetized with sodium pentobarbital, the olfactory bulbs were removed by suction using a metal pipe linked to a water aspirator. Two weeks after the removal of the olfactory bulbs, rats were divided into 10 to 11 animals for each group. The rats of one group were subcutaneously administered once a day for 2 weeks with the test drug which was prepared by dissolving a predetermined amount of the test drug in saline for injection and adding 0.5 M aqueous sodium hydroxide solution to adjust to pH 4-5. Twenty four hours after the final administration, the rats were placed in the center of a circular open field apparatus (70 cm diameter 25 blocks), and the number of crossings among blocks during 3 minutes was counted.

[5] = tested on: recombinant human melanocortin receptors; assay: Antagonism in recombinant human melanocortin receptors

Molecule	melting point [°C]	also measured
COc1ccc2ccccc2c1CCCCN1CCN(CC(c2ccc(F)cc2)N2CCN(C(C)C)CC2)CC1.Cl.Cl.Cl.Cl (stereo not shown)	183 to 185	–
MTII	–	number of times of drinking water (number of the electric shocks) in comparison with the control group (Male SD rats [1]): dose-dependently, significantly decreased
CN1CCN(C(CN2CCN(CCCCc3cccc4ccccc34)CC2)c2ccc(N)cc2)CC1.O=C(O)/C=C\C(=O)O.O=C(O)/C=C\C(=O)O.O=C(O)/C=C\C(=O)O (stereo not shown)	152 to 154	–
CC(C)N1CCN(C(CN2CCN(CCCCc3cccc4ccccc34)CC2)c2ccc(F)cc2)CC1.O=C(O)/C=C\C(=O)O.O=C(O)/C=C\C(=O)O.O=C(O)/C=C\C(=O)O (stereo not shown)	127 to 129	–
CN1CCN(C(CN2CCN(CCCCc3cccc4ccccc34)CC2)c2ccc(F)cc2)CC1.Cl.Cl.Cl.Cl (stereo not shown) [Compound 4, 1-[2-(4-fluorophenyl)-2-(4-methylpiperazino)ethyl]-4-(4-naphthalen-1-yl-butyl)piperazine tetrahydrochloride]	193 to 195	IC50 (human MC4 receptor): 164 nM; decreased number of times of drinking water (number of the electric shocks) caused by electric shock (Male SD rats [2]): significantly, dose-dependently antagonized; decreased amount of time spent in open arms after forced swim stress (Male SD rats [3]): significantly, dose-dependently antagonized; increased number of crossings among blocks in the open field [4]: significantly, dose-dependently antagonized; action in recombinant human melanocortin receptors (selectivity) [5]: high selective antagonist
CN1CCN(C(CN2CCN(CCCCc3cccc4ccccc34)CC2)c2ccc(F)cc2)CC1 (single isomer, unassigned; (-)) [Compound 6, (−)-1-[2-(4-Fluorophenyl)-2-(4-methylpiperazino)ethyl]-4-[4-naphthalen-1-yl-butyl]piperazine hydrochloride]	–	IC50 (human MC4 receptor): 90 nM
CN1CCC(O)(C(CN2CCN(CCCCc3cccc4ccccc34)CC2)c2ccc(F)cc2)CC1.Cl.Cl.Cl (stereo not shown)	156 to 160	–
CN1CCN(C(CN2CCN(CCCCc3cccc4ccccc34)CC2)c2ccc(F)cc2)CC1.Cl (stereo not shown)	193 to 195	–
COc1ccc2ccccc2c1CCCCN1CCN(CC(c2ccc(F)cc2)C2CCN(C(C)C)CC2)CC1.Cl.Cl.Cl (stereo not shown)	233 to 235	–
CN1CCN(C(CN2CCN(CCCCc3noc4cc(F)ccc34)CC2)c2ccc(F)cc2)CC1.O=C(O)/C=C\C(=O)O.O=C(O)/C=C\C(=O)O.O=C(O)/C=C\C(=O)O (stereo not shown)	170 to 173	–
N=C(N)N1CCN(C(CN2CCN(CCCCc3cccc4ccccc34)CC2)c2ccc(F)cc2)CC1.O=C(O)/C=C\C(=O)O.O=C(O)/C=C\C(=O)O.O=C(O)/C=C\C(=O)O (stereo not shown)	171 to 173	–
CC(C)Oc1ccc2ccccc2c1CCCCN1CCN(CC(c2ccc(F)cc2)N2CCN(C(C)C)CC2)CC1.O=C(O)/C=C\C(=O)O.O=C(O)/C=C\C(=O)O.O=C(O)/C=C\C(=O)O (stereo not shown)	167 to 169	–
COc1ccc(C(CN2CCN(CCCCc3cccc4ccccc34)CC2)N2CCN(C)CC2)cc1.O=C(O)/C=C\C(=O)O.O=C(O)/C=C\C(=O)O.O=C(O)/C=C\C(=O)O (stereo not shown)	138 to 140	–
α-MSH (Ac-SYSMEHFRWGKPV-NH2; ends and bridges not checked; UniProt P01189 138-150, looked up) [melanocyte stimulating hormone (melanocortin produced from POMC), purchased from Peninsula Laboratories]	–	number of times of drinking water (number of the electric shocks) in comparison with the control group (Male SD rats [1]): dose-dependently, significantly decreased
